Experimental data reported in patent US7265154B2, “Valproic acid and derivatives thereof as histone deacetylase inhibitors” (Georg-Speyter-Haus Chemotherapeutisches Forschungsinstitut, priority 2000, dated 2007).
Several values for one entry are separate records, joined by “and”; a condition that tells them apart may be missing. Identical values can stand only once. Square brackets hold non-standard residues; d marks the D form. Peptide text beside a SMILES is read from it. Aoe = N[C@@H](CCCCCC(=O)[C@@H]1CO1)C(=O)O

How the values were obtained:
F9 teratocarcinoma cells [1] = assay: Nuclear AP-2 protein as differentiation marker, Western blot; type: cell-based; settings: 48 h; VPA 1 mM, sodium butyrate 1 mM, trichostatin A 30 nM
Source text: Nuclear extracts were separated on a 9% SDS polyacrylamide gel. AP-2 protein was detected by Western blot analysis using a rabbit polyclonal antibody (Santa Cruz, Cat.-No.: SC-184) at a dilution of 1/1000 in Tris buffered saline containing 3% non-fat dry milk and 0.05% Tween 20.

[2] = system: histones H3 and H4 in F9 cells; assay: Accumulation of hyperacetylated histones H3 and H4, Western blot; type: cell-based; settings: whole cell extracts, VPA in the range of therapeutic serum levels, 16 h
Source text: Histone deacetylase inhibitors induce the accumulation of N-terminally hyperacetylated histones H3 and H4. These acetylated histones can be detected by Western blot analysis of whole cell extracts or of histone preparations from histone deacetylase inhibitor-treated cells using antibodies specific for the acetylated N-terminal lysine residues of histones H3 and H4.
These acetylated histones can be detected by Western blot analysis in cell extracts of appropriately treated cells.
(A) For the time course analysis F9 cells were seeded into 6-well culture dishes 30 h before the intended time point of analysis. […] DNA of collected samples was sheared by sonication and samples were separated on a 15% denaturing polyacrylamide gel. Acetylated histones H3 and histone H4 were detected by Western blot analysis using commercially available antibodies (Upstate Biotechnology) specific for the acetylated forms of histones (Ac-H3, Cat-Nr.: 06-599; Ac-H4, Cat-Nr.: 06-598). Equal loading of the lanes was confirmed by staining a part of the polyacrylamide gel by Coomassie blue.
Whole cell extracts were prepared 16 h after treatment as described above. Analysis for acetylated histones H3 and H4 was performed as described in (A).

[3] = system: Gal4 fusion proteins of TR, PPARδ, RAR, N—CoR and AML/ETO in Hela cells; assay: Gal4 fusion protein transcriptional repression assay, UAS TK luciferase reporter; type: cell-based; settings: 24 h, VPA 1 mM, Trapoxin 10 nM, TSA 100 nM
Source text: The transcriptional assay for repressor activity exploits activation and derepression of a Gal4-dependent reporter gene. This assay can be performed either by transient transfection of mammalian cell lines (e.g. HeLa, 293T, CV-1) or with specifically constructed permanent cell lines. Transcription factors such as thyroid hormone receptor, PPARδ, retinoic acid receptor, N—COR and AML/ETO repress transcription when they bind to a promoter containing UAS elements as fusion proteins with the heterologous DNA-binding domain of the yeast Gal4 protein. […] HDAC inhibitors induce relief of this repression which can be detected as an increase in reporter gene activity (e.g. by luciferase assay).
The transcription factors thyroid hormone receptor (TR), peroxisome proliferator activated receptor □ (PPARδ), retinoic acid receptor (RAR), the corepressor N—CoR and the AML/ETO fusion protein repress transcription when they bind to a promoter containing UAS sites (Gal4 response element) as fusion proteins with the heterologous DNA binding domain of the yeast Gal4 protein. […] Transcriptional repression is measured as luciferase activity relative to the baseline of cells transfected with an expression plasmid for the Gal4 DNA binding domain alone (FIG. 2).

[4] = molecular target: T1, PPARδ ligand binding domain (glucocorticoid receptor hybrid) (UniProt P04150+P35396); assay: PPARδ-glucocorticoid receptor hybrid reporter gene assay (alkaline phosphatase) in CHO cells; type: cell-based; settings: 40 h, cPGI 5 μM with VPA 1 or 2 mM or TSA 300 nM
T1 construct: expressed in transfected cells; host or cells: CHO subclone with MMTV-LTR alkaline phosphatase reporter
T1 sequence (P04150+P35396 with tags, fused parts or gaps): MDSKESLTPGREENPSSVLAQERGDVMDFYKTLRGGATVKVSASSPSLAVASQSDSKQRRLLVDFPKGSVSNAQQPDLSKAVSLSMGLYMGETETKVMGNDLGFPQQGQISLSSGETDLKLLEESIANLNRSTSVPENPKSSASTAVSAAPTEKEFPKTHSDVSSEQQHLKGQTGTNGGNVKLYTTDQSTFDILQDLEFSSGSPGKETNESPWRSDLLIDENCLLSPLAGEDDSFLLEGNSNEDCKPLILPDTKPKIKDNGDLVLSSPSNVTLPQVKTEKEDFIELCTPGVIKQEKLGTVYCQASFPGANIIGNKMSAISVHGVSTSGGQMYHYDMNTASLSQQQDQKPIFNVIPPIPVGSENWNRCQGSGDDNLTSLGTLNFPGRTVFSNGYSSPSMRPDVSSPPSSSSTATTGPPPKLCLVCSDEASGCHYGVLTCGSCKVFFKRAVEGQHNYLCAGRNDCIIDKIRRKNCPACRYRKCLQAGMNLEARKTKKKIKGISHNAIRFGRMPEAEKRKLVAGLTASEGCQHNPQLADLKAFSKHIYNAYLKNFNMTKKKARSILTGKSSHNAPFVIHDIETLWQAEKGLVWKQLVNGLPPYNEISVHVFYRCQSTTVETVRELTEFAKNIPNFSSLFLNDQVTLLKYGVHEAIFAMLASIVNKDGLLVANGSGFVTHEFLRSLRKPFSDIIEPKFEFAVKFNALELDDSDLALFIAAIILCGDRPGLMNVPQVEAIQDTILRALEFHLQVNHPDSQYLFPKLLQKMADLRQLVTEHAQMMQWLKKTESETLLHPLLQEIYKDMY
Source text: A reporter gene cell line for activation of the PPARδ ligand binding domain was constructed in CHO cells. […] Activation of the PPARδ ligand binding domain in these cells induces expression of the alkaline phosphatase reporter gene which is detectable by an enzymatic assay from the cell culture supernatant. […] Reporter gene activity was monitored by an enzymatic assay (alkaline phosphatase).

F9 teratocarcinoma cells [5] = assay: 3H-thymidine incorporation in F9 cells; type: cell-based; settings: 1 mM VPA, 36 h, then 12 h 3H-thymidine
Source text: (§1) Cell differentiation is associated with cell cycle arrest, morphological alterations and the appearance of expression of markers of the differentiated phenotype. Morphological alterations where determined by microscopic evaluation of F9 and HT-29 cells. One parameter of differentiation, the cell cycle arrest, was shown in F9 teratocacrcinoma, estrogen independent MT-450 breast cancer and HT-29 colonic carcinoma cells by means of the reduced incorporation of ^3H-thymidine into cultured cells. […] 37 kBq of ^3H-thymidine were added for additional 12 h of culture. MT-450 cells were cultured for 72 h prior to a 1 h ^3H-thymidine labelling period. Incorporation of ^3H-thymidine into DNA was determined by automatic cell harvesting and liquid scintillation counting. […] The dose-response for the reduction of thymidine incorporation into HT-29 cells (FIG. 5A) was determined by the same experimental procedure. In addition, the induction of a cell differentiation marker was shown in F9 teratocarcinoma cells (FIG. 5B).

PC-3 cells = assay: Morphological evaluation for differentiation, PC-3; type: cell-based, human; settings: VPA treatment
Experimental: (§2) The reduction in biomass could indicate cell loss due to cell death and/or differentiation associated cell cycle arrest. Quantitative parameters, e.g. the loss of biomass, was determined in 30 human cancer cell lines (FIG. 8 e) and twelve examples of dose-response curves are shown, e.g. BT-549 breast cancer cells (1), estrogen dependent ZR-75 breast cancer cells (2), DMS-114 small cell lung cancer cells (3), NCl—H226 non-small cell lung cancer cells (4), SK-MEL-28 skin cancer cells (5), OVCAR-3 ovarian cancer cells (6), HUP-T3 pancreatic cancer cells (7), DU-145 prostate cancer cells (8), DETROIT-562 head and neck cancer cells, LS-174 colon cancer cells (10), A-172 brain cancer cells (11) and HL-60 leukemia cells (12) (FIGS. 8a-d). All cells were evaluated for morphological signs of cell death and/or differentiation.

[6] = system: human cancer cell cultures; assay: Reduction of total cellular biomass (Sulforhodamine B); type: cell-based; settings: 48 hours VPA
Experimental: Background OD of complete medium with 5% FBS fixed and stained as described above was also determined in 12 separate wells.

[7] = system: breast, ovarian, squamous cell and renal carcinoma cells; assay: Cell viability assay (MTT); type: cell-based; settings: 1 or 3 mM, 40 h or 70 h
Experimental: Human MDA-MB468, MDA-MB453 and SKBR3 breast carcinoma cells, A431 squamous cell carcinoma cells, and SKOV3 ovarian carcinoma cells were maintained in Dulbecco's modified Eagle's medium (DMEM, BioWhittaker, Verviers, Belgium) supplemented with 10% heat inactivated fetal bovine serum (FBS), 2 mM L-glutamine, 100 units/ml penicillin, and 100 μg/ml streptomycin. Human MCF7 breast carcinoma cells were grown in RPMI medium supplemented as described above.
Renal cell carcinoma (Renca) cells stably transfected with plasmid pZeoSV2/lacZ encoding E. coli β-galactosidase (Renca-lacZ cells) (Maurer-Gebhard et al., Cancer Res. 58: 2661-2666, 1998) were grown in RPMI-1640 medium supplemented with 8% FBS, 2 mM L-glutamine, 100 U/ml penicillin, 100 μg/ml streptomycin, 0.25 mg/ml Zeocin. […]
Tumor cells were seeded in 96 well plates at a density of 1×10^4 cells/well in normal growth medium. […] After solubilization of the formazan product, the absorption at 590 nm was determined in a microplate reader (Dynatech, Denkendorf, Germany) and the relative amount of viable cells in comparison to cells grown without the addition of valproic acid was calculated.

[8] = system: HT-29 colonic carcinoma cells; assay: 3H-thymidine incorporation in HT-29 cells; type: cell-based; settings: 1 mM VPA, 36 h, then 12 h 3H-thymidine
Source text: as §1

[9] = system: MT-450 breast cancer cells; assay: 3H-thymidine incorporation in MT-450 cells; type: cell-based; settings: 1 mM VPA, 72 h, then 1 h 3H-thymidine
Source text: as §1

U87MG cells = assay: Morphological evaluation for differentiation, U87MG; type: cell-based, human; settings: VPA treatment
Experimental: as §2

[10] = system: DU-145 prostate cancer cells; assay: Morphological evaluation for differentiation, DU-145; type: cell-based, human; settings: VPA treatment
Experimental: as §2

[11] = system: SW-1116 colon cancer cells; assay: Morphological evaluation for cell death, SW-1116; type: cell-based, human; settings: 1 mM VPA
Experimental: as §2

CC(/C=C/C(=O)NO)=C\[C@@H](C)C(=O)c1ccc(N(C)C)cc1 [TSA, trichostatin A]
Appearance of nuclear AP-2 protein (F9 teratocarcinoma cells [1]): induce nuclear AP-2 protein | Accumulation of hyperacetylated histones H3 and H4 [2]: induce the accumulation of hyperacetylated histones H3 and H4 | Relief of transcriptional repression (increase in reporter gene activity) [3]: relief of repression | Activation of the reporter gene together with the PPARδ ligand cPGI [4]: synergistic activation

O=C1N[C@@H](Cc2ccccc2)C(=O)N2CCC[C@@H]2C(=O)N[C@@H](CCCCCC(=O)[C@@H]2CO2)C(=O)N[C@H]1Cc1ccccc1 [Trapoxin, trapoxin] (cyclo(FF[dP][Aoe]))
Relief of transcriptional repression (increase in reporter gene activity) [3]: relief of repression

CCCC(=O)[O-].[Na+] [sodium butyrate]
Appearance of nuclear AP-2 protein (F9 teratocarcinoma cells [1]): weak | Accumulation of hyperacetylated histones H3 and H4 [2]: induce the accumulation of hyperacetylated histones H3 and H4

CCCC(CCC)C(=O)O [VPA, 2-n-propylpentanoic acid]
Appearance of nuclear AP-2 protein (F9 teratocarcinoma cells [1]): induce nuclear AP-2 protein | Accumulation of hyperacetylated histones H3 and H4 [2]: induce hyperactylation of histones H3 and H4 | Reduction of the rate of thymidine incorporation (F9 teratocarcinoma cells [5]): 48±5% and 48% | Change of cell morphology (PC-3 cells): change their normal round morphology to a long fibroblast-like shape | Total cellular biomass [6]: reduces the total cellular biomass | Viability of tumor cells (MTT) [7]: reduces the viability | Reduction of the rate of thymidine incorporation [8]: 52±8% | Reduction of the rate of thymidine incorporation [9]: 63±8% | Change of cell morphology (U87MG cells): increase in length and develop spider-like filamentous extensions | Change of cell morphology [10]: change their normal round morphology to a long fibroblast-like shape | Cell death by morphological signs [11]: most cells were dying
